Experimental data taken from ChEMBL document CHEMBL3217606, “New positive allosteric modulators of the metabotropic glutamate receptor 2 (mGluR2). Identification and synthesis of N-propyl-5-substituted isoquinolones” (Medchemcomm, 2011).

Key:
[1] = molecular target: T1, Metabotropic glutamate receptor 2 (Homo sapiens, UniProt Q14416); assay: Positive allosteric modulation of human mGluR2 expressed in CHO cells assessed as incorporation of [35S]GTPgammaS after 30 mins by scintillation counting analysis; format: functional, cell-based
Target sequence in this assay (Q14416 whole entry): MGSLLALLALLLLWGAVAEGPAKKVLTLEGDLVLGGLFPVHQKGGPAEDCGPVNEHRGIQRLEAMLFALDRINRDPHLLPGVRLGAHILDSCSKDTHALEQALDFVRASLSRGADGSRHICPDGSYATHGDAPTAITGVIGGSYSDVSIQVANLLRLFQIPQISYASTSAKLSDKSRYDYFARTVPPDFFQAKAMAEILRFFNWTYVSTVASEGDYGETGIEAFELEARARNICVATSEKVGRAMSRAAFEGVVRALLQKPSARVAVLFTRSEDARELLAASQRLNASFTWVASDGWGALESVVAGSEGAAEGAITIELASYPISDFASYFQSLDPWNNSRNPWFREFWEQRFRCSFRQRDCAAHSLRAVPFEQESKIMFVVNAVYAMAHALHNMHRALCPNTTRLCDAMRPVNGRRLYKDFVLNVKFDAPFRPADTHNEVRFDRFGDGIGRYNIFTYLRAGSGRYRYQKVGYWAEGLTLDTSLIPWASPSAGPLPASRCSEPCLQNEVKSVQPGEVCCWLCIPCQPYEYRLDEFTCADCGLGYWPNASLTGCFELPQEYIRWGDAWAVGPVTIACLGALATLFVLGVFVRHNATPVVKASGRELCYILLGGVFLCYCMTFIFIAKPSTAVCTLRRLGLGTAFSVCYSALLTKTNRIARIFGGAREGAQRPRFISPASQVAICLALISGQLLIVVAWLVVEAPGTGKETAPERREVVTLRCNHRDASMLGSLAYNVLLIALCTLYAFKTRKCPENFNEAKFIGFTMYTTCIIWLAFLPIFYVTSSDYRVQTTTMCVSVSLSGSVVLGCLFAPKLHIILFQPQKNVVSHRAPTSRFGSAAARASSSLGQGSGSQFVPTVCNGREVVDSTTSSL

[2] = molecular target: T1, Metabotropic glutamate receptor 2; assay: Positive allosteric modulation of human mGluR2 expressed in CHO cells assessed as incorporation of [35S]GTPgammaS at 0.3 nM to 50 uM after 30 mins by scintillation counting analysis relative to control; format: functional, cell-based
Target sequence in this assay (Q14416 19-872 limits assumed): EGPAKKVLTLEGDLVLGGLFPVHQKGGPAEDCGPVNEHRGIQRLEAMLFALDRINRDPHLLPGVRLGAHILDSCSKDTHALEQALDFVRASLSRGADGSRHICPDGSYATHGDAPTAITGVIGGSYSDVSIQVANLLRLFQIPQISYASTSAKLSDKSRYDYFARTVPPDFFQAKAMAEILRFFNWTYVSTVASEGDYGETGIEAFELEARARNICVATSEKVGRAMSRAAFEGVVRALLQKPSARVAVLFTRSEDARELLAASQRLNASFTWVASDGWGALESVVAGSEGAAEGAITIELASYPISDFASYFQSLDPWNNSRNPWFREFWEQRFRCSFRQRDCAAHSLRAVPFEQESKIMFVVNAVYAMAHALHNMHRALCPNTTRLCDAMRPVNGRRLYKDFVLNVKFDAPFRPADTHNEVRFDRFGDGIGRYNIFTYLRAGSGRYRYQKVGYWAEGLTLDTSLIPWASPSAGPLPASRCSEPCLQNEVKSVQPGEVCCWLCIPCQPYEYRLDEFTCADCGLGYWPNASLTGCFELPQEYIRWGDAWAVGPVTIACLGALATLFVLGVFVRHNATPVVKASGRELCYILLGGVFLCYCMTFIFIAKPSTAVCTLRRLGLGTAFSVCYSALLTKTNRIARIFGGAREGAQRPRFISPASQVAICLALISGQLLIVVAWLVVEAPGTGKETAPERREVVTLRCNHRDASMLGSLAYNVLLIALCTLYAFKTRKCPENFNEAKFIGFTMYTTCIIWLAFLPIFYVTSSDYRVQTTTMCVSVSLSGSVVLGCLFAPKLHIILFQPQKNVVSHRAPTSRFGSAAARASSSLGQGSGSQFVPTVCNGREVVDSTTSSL

[3] = Drug metabolism in human liver microsomes at 5 uM after 15 mins; format: ADME; settings: read-out: Drug metabolism
[4] = molecular target: T1, Metabotropic glutamate receptor 2; assay: Positive allosteric modulation of mGluR2 (unknown origin) by FLIPR assay
Target sequence in this assay (Q14416 whole entry): as the sequence (Q14416 whole entry) above

[5] = molecular target: T1, Metabotropic glutamate receptor 2; assay: Potentiation of human mGluR2 expressed in CHO cells assessed as fold shift in glutamate concentration response curve at 3 uM relative to control; format: cell-based
Target sequence in this assay (Q14416 19-872 limits assumed): as the sequence (Q14416 19-872 limits assumed) above

| SMILES | EC50 [1] [nM] | Emax [2] [%] | metabolised at 0.25 h, 5 µM [3] [%] | EC50 [4] [nM] | fold change (FC) [5] |
| --- | --- | --- | --- | --- | --- |
| CCCn1ccc2c(NCCc3ccc(C)cc3)cccc2c1=O | 200 | 134 |  |  |  |
| CCCn1ccc2c(NCCc3ccc(OC)cc3)cccc2c1=O | 251 | 92 | 97 |  |  |
| CCCn1ccc2c(NCc3cccc(OC)c3)cccc2c1=O | 316 | 129 |  |  |  |
| CCCn1ccc2c(N(C)CCc3ccc(OC)cc3)cccc2c1=O | 398 | 93 |  |  |  |
| CCCn1ccc2c(NCCc3ccccc3)cccc2c1=O | 501 | 123 | 52 | 158 |  |
| CCCn1ccc2c(NCCc3ccccc3)ccc(Cl)c2c1=O | 251 | 68 |  |  |  |
| CCCn1ccc2c(OCCc3ccc(OC)cc3)cccc2c1=O | 251 | 123 |  |  |  |
| CCCn1ccc2c(NCc3ccc(OC)cc3)cccc2c1=O | 501 | 81 |  |  |  |
| CCCn1ccc2c(NCCCc3ccccc3)cccc2c1=O | 158 | 112 | 57 |  |  |
| CCCn1ccc2c(NCc3cccc(OC(F)(F)F)c3)cccc2c1=O | 200 | 162 | 34 |  |  |
| CCCn1ccc2c(NCc3ccccc3Cl)cccc2c1=O | 200 | 163 | 26 |  | 6.6 |
| CCCn1ccc2c(NCc3ccccc3)cccc2c1=O | 2000 | 80 | 38 |  |  |
| CCCn1ccc2c(NCCc3cccc(OC)c3)cccc2c1=O | 251 | 110 |  |  |  |
| CCCn1ccc2c(NCc3cccc(Oc4ccccc4)c3)cccc2c1=O | 1260 | 65 |  |  |  |
| CCCn1ccc2c(NCCc3ccccc3OC)cccc2c1=O | 126 | 137 | 91 |  |  |
